The text below walks through data of ChEMBL document CHEMBL1201862, “PubChem BioAssay data set” (2004).

For one experiment, the target named is T1, Cysteine protease ATG4B (Homo sapiens, UniProt Q9Y4P1).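 Note: Fluorescence-based dose-response confirmation assay measuring inhibition of ATG4B activity.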
T1 sequence (Q9Y4P1 whole entry): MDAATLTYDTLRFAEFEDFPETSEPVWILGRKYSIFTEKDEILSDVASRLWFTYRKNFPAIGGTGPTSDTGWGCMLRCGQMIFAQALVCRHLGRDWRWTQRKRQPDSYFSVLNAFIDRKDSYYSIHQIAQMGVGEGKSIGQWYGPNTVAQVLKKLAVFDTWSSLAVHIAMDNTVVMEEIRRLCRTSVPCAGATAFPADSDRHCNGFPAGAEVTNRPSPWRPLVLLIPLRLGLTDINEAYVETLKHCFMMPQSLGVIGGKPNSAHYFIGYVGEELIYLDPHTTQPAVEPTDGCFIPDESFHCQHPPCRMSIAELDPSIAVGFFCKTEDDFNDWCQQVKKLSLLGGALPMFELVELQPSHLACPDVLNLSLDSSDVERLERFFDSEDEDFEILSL
In kind it is functional.

Experiment [1] deals with T2, Protein RecA (Mycobacterium tuberculosis, UniProt P9WHJ3).
T2 sequence (P9WHJ3 whole entry): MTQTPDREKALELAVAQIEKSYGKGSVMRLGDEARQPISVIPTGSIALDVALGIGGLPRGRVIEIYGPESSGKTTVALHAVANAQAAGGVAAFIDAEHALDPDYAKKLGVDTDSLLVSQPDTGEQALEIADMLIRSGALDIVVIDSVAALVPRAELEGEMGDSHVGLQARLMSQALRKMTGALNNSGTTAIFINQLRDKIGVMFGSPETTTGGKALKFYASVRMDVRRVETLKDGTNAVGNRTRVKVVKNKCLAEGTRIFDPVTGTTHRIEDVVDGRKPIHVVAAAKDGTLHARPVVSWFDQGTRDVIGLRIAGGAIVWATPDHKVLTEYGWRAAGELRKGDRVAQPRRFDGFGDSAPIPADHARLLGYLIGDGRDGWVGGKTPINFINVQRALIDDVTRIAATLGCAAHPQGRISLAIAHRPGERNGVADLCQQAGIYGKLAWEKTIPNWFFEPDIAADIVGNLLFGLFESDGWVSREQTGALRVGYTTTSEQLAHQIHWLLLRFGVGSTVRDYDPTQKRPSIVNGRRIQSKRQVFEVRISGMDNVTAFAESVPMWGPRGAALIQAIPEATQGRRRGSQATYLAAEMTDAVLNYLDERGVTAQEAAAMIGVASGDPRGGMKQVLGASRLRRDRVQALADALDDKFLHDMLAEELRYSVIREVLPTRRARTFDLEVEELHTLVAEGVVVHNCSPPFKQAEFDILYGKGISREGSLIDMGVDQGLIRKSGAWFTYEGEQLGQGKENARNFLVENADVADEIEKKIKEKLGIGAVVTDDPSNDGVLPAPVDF
Description: RecA Intein Measured in Biochemical System Using Plate Reader - 2047-02_Inhibitor_Dose_DryPowder_Activity. [Related pubchem assays (depositor defined):AID2223]. Also on record: species or system Mycobacterium tuberculosis H37Rv.

For experiment [2], the target named is Tyrosine-protein phosphatase non-receptor type 22 (Homo sapiens, UniProt Q9Y2R2). In kind it is functional.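 Note: confirmatory dose-response retest of primary uHTS hits for inhibition of LYP phosphatase, measured by a fluorescence intensity read-out.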
Sequence of Tyrosine-protein phosphatase non-receptor type 22 (Q9Y2R2 whole entry): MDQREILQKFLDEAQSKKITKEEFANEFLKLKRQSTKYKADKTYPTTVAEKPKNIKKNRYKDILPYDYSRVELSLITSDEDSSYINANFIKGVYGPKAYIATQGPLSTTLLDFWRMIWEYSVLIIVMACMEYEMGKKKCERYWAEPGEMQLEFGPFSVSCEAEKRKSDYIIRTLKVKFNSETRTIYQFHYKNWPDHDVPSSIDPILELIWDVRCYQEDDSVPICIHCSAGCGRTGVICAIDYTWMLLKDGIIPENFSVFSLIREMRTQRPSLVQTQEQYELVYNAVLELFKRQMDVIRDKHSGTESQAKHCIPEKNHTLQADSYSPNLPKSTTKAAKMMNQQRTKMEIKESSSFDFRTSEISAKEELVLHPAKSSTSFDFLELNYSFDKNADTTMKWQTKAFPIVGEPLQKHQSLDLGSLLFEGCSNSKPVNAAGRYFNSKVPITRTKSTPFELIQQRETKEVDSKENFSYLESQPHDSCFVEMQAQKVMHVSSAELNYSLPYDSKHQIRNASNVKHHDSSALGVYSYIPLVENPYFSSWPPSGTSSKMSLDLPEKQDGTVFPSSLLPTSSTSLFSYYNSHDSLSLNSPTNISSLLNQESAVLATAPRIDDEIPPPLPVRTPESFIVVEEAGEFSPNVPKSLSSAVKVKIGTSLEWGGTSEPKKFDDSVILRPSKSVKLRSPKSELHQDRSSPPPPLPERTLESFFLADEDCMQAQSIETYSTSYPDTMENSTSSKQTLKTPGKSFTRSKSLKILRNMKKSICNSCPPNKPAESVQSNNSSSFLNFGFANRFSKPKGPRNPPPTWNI
A short description of experiment [3]: Shn3 3'UTR reporter inhibitors, dose response, cell-based, Clone20 osteoblasts, firefly luciferase, cherry-picked (AID 624132).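 Note: firefly luciferase luminescence from reporter carrying the Shn3 3'UTR in osteoblasts.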 In kind it is functional.
Experiment [4] is described as follows: NIH-3T3 fibroblast cytotoxicity, dose response, cytotoxicity control, cell-based, fluorescence, Alamar Blue, secondary assay (AID 2327).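 Note: NIH-3T3 mouse fibroblasts cultured with fluconazole at 8 µg/mL.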 In kind it is functional.
Experiment [5] has as its target T2, Protein RecA. The experiment in a line: Fluorescence Cell-Free Homogeneous Dose Retest to Identify Inhibitors of RecA-Intein Splicing Activity. [Related pubchem assays (depositor defined):AID2097, AID2223, AID489010, AID492950]. In kind it is functional.
Experiment [6] is described as follows: Luminescence-based dose response cell-based high throughput screening assay for cytotoxic compounds using the IEC-6 intestinal epithelial cell line. [Related pubchem assays: 1858 (Summary AID.), 1825 (Counterscreen.), 1907 (Confirmation screen.)]. In kind it is functional. (Counterscreens check selectivity or assay interference.)
Experiment [7] addresses Serine/threonine-protein kinase N2 (Homo sapiens, UniProt Q16513). In kind it is functional.
Experiment [8] deals with Glycogen synthase kinase-3 beta (Homo sapiens, UniProt P49841). In kind it is functional.
Sequence of Glycogen synthase kinase-3 beta (P49841 whole entry): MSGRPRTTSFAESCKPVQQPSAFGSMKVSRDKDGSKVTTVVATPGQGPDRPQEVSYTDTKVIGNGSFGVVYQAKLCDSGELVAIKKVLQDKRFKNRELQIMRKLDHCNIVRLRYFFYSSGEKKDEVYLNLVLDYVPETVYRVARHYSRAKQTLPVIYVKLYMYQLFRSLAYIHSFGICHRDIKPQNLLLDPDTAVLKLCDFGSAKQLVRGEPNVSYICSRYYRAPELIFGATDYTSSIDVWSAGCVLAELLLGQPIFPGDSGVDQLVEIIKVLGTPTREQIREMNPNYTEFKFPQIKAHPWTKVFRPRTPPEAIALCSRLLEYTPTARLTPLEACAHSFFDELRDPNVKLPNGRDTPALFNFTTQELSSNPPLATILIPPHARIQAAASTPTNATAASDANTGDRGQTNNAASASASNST
Experiment [9] deals with Serine/threonine-protein kinase 3 (Homo sapiens, UniProt Q13188). In kind it is functional.
Sequence of Serine/threonine-protein kinase 3 (Q13188 whole entry): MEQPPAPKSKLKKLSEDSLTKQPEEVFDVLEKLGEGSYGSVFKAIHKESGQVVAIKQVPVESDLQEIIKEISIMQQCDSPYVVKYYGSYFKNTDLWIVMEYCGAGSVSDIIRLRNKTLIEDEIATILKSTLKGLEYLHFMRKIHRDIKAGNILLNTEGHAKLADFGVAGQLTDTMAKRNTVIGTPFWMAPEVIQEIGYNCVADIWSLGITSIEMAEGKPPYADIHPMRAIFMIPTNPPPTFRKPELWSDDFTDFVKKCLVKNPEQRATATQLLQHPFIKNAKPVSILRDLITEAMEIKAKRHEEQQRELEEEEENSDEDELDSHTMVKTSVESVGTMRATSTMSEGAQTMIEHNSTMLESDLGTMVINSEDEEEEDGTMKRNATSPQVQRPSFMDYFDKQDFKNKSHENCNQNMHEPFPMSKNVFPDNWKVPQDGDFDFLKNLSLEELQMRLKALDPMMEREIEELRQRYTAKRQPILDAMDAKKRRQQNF
Experiment [10] concerns the target STE20-like serine/threonine-protein kinase (Homo sapiens, UniProt Q9H2G2). In kind it is functional.
Experiment [11] addresses Cell division cycle 7-related protein kinase (Homo sapiens, UniProt O00311). In kind it is functional.
Experiment [12] concerns the target Mast/stem cell growth factor receptor Kit (Homo sapiens, UniProt P10721). In kind it is functional.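 Note: KIT entry within a kinase panel assay.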
The target of experiment [13] is T3, Heat shock factor protein 1 (Mus musculus, UniProt P38532).
T3 sequence (P38532 whole entry): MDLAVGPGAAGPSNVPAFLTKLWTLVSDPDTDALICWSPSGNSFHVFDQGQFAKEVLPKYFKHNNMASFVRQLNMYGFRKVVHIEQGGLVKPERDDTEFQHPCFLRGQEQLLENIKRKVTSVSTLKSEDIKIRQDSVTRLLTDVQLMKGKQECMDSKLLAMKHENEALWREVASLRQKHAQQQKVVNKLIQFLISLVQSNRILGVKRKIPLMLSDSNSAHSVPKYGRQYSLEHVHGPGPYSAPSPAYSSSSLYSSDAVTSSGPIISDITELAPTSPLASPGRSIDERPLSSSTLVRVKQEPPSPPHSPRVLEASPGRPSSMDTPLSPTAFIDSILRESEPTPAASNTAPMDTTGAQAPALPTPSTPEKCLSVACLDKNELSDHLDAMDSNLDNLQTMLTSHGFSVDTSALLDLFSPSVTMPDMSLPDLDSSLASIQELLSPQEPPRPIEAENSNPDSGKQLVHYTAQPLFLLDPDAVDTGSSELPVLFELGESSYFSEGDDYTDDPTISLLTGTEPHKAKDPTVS
The experiment in a line: inhibition of MG132-induced HSE-luciferase signal, confirmation, cell-based, NIH3T3, luminescence, dose retest (AID 2382).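 Note: NIH3T3 fibroblasts with HSF1-driven luciferase reporter stressed by proteasome inhibitor MG132; luminescence from HSF1-driven luciferase expression after 8 hours of MG132 stress.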 In kind it is functional.

The target in a further experiment is T4, Caspase-3 (Homo sapiens, UniProt P42574).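 Note: Dose-response selectivity test against caspase-3 for candidate inhibitors of sentrin-specific proteases (SENPs).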
T4 sequence (P42574 whole entry): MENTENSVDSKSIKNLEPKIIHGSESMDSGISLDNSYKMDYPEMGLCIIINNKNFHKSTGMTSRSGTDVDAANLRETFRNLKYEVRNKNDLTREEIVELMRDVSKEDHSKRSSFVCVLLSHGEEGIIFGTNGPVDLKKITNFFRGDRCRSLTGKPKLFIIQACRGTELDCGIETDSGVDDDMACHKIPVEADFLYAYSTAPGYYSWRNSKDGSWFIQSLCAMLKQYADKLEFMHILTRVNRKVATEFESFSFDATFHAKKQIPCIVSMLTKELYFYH
In kind it is functional.

Experiment [14] in a line: cytotoxicity in HEK-293T NF-kB-Luc cells, dose response, cytotoxicity control for B/T-cell NF-kB inhibitor project, cell-based, uHTS hits (AID 489019).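 Note: IC50 reflects cytotoxicity as loss of cell viability.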 In kind it is functional.

The structures appear in SMILES notation. The source made the active and inactive calls.

Sequence of Cell division cycle 7-related protein kinase (O00311 whole entry): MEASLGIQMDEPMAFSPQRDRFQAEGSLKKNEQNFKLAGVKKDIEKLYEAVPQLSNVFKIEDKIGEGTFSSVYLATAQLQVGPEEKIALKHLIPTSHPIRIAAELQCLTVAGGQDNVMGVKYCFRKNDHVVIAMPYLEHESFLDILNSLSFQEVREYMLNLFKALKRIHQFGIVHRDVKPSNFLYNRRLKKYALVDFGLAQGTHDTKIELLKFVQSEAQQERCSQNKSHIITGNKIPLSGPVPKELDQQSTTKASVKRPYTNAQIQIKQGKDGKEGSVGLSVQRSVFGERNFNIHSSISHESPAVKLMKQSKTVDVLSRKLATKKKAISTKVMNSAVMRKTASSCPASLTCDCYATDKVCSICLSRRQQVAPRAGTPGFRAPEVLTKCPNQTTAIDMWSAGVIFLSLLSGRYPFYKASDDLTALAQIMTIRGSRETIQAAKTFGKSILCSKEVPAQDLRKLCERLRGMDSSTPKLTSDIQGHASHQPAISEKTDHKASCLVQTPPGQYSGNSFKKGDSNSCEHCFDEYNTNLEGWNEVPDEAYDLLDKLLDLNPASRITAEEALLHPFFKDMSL
Sequence of Mast/stem cell growth factor receptor Kit (P10721 whole entry): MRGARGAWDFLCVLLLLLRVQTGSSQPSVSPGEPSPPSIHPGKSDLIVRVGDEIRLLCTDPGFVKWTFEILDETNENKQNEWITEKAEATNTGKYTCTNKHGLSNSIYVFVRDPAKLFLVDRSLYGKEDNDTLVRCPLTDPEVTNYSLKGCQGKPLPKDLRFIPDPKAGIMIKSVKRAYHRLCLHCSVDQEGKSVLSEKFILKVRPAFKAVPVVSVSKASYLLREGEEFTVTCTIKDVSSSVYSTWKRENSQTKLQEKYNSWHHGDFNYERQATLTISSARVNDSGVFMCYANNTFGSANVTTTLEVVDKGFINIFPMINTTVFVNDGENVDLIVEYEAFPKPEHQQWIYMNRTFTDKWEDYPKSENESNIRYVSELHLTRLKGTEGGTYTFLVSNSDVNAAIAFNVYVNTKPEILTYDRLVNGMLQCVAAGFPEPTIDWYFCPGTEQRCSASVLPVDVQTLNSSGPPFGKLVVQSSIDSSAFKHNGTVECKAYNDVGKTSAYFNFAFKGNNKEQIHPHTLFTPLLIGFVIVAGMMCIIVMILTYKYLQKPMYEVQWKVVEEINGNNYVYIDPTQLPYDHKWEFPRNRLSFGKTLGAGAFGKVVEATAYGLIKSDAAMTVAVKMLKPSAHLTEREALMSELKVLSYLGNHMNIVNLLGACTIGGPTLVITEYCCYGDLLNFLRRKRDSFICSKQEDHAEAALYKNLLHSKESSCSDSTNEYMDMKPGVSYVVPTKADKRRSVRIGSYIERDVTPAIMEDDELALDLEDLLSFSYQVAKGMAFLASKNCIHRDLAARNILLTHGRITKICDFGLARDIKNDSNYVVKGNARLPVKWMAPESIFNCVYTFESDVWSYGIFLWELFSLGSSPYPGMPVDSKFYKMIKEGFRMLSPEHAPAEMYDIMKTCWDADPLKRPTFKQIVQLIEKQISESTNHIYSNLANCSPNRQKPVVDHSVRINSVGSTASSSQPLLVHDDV
Sequence of Serine/threonine-protein kinase N2 (Q16513 whole entry): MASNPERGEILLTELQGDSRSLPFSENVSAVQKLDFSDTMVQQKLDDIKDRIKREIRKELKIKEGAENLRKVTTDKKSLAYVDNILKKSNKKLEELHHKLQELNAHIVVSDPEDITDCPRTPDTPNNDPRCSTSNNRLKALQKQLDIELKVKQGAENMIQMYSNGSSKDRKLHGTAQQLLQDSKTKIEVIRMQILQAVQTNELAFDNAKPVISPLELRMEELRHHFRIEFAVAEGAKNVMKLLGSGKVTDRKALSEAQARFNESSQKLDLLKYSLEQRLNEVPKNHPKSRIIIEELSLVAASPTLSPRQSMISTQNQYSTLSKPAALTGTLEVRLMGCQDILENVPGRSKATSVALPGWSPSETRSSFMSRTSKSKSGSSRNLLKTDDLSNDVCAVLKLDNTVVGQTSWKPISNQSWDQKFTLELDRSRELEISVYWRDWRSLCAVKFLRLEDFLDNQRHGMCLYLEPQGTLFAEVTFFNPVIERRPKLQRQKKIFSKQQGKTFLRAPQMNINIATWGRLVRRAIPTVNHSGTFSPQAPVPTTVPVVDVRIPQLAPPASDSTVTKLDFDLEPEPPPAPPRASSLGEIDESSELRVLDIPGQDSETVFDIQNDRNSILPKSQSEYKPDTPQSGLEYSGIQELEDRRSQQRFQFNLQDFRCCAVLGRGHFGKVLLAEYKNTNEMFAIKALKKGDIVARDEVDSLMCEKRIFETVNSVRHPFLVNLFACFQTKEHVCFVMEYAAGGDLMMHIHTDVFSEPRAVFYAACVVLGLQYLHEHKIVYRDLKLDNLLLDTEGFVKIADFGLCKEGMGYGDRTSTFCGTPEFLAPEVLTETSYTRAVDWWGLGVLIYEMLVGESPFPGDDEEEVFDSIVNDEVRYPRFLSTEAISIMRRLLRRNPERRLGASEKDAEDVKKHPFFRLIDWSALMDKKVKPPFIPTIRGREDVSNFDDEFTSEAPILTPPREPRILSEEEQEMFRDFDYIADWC

The term IC50 denotes the concentration at which inhibition is half-maximal. What is called AC50 is the concentration at which the activity in the assay is half-maximal. What is called EC50 is the concentration giving half of the maximal effect. Regarding `CCn1nc(/C=C/c2ccccc2)nc2c(=O)n(C)c(=O)nc1-2`, the concentration for half-maximal inhibition (IC50) on Cysteine protease ATG4B was 653 nM (active); in [2], 11700 nM (active); in experiment [6], 335 nM (active). Besides, the AC50 was 60 nM (active) on Protein RecA [1] and 2570 nM (active) in [3]. Moreover, the results for the EC50 (in experiment [4]; at Protein RecA [5]) were 952 nM (inconclusive) and 36.8 nM (active), respectively.
One may read the Ki as a dissociation constant, usually derived from enzyme kinetics or from competition with a known ligand. As for `COc1cc2c(cc1Nc1nc(Nc3cccc(F)c3C(N)=O)c3cc[nH]c3n1)N(C(=O)CN(C)C)CC2`, the Ki in [7] is > 7940 nM (inactive); in [8] it was > 3980 nM (inactive); in [9], > 3160 nM (inactive); in experiment [10], > 10000 nM (inactive); in [11], 631 nM (active); in [12], > 1260 nM (inactive).
On to `CC(C)c1ccc(-c2nnn(CCC(=O)O)n2)cc1`, for which, in experiment [13], the EC50 was < 160 nM (active). The results for the IC50 (at Caspase-3; in experiment [14]) were 48600 nM (active) and > 80000 nM (inactive), respectively.
